The results in this text go back to patent US8802664B2 (Bioproject, priority 2010, dated 2014).

The structures appear in SMILES notation. Where a name gives a salt, the structure may show the parent alone.

For the compound `CC(=O)OC1CCN(c2cccc(C(OC3CCN(C)CC3)c3nc4ccccc4s3)c2)CC1` (stereo not drawn) (as salt: oxalate) [Example 413, acetic acid 1-{3-[benzothiazol-2-yl(1-methylpiperidin-4-yloxy)methyl]phenyl}piperidin-4-yl ester], the melting point stood at 74 °C. The compound `CN1CCC(OC(c2cccc(OC3CCNCC3)c2)c2nc3ccccc3s2)CC1` (stereo not drawn) (as salt: oxalate) [Example 415, 2-{(1-methylpiperidin-4-yloxy)[3-(piperidin-4-yloxy)phenyl]methyl}benzothiazole] yielded a melting point of 76 °C. `CN1CCC(OC(c2cccc(OCCCCCNCCCCN)c2)c2nc3ccccc3[nH]2)CC1` (stereo not drawn) (as salt: oxalate) [Example 419, N1-(5-{3-[(1H-benzimidazol-2-yl)(1-methylpiperidin-4-yloxy)methyl]phenoxy}pentyl)butane-1,4-diamine] came in with a melting point of 162 °C.

`CN1CCC(NC(c2cccc(C#CCCCCN)c2)c2nc3ccccc3s2)CC1` (stereo not drawn) (as salt: oxalate) [Example 420, {[3-(6-aminohex-1-ynyl)phenyl]benzothiazol-2-yl-methyl}(1-methylpiperidin-4-yl)amine]: the melting point was 80 °C.

Compound `CN1CCC(OC(c2cccc(OCC=CCO)c2)c2nc3ccccc3s2)CC1` (stereo not drawn) (as salt: oxalate) [Example 422, 4-{3-[benzothiazol-2-yl(1-methylpiperidin-4-yloxy)methyl]phenoxy}but-2-en-1-ol] had a melting point of 73 °C. Turning to `CN1CCC(OC(c2cccc(N3CCC(N)C3)c2)c2nc3ccccc3s2)CC1` (stereo not drawn) (as salt: oxalate) [Example 423, 1-{3-[benzothiazol-2-yl(1-methylpiperidin-4-yloxy)methyl]phenyl}pyrrolidin-3-ylamine], the melting point is 145 °C.

As to `CN1CCC(OC(c2nc3ccccc3[nH]2)c2cc(I)ccc2F)CC1` (stereo not drawn) (as salt: oxalate) [Example 425, 2-[(2-fluoro-5-iodo-phenyl)(1-methylpiperidin-4-yloxy)methyl]-1H-benzimidazole], the melting point stood at 175 °C. Turning to `CN1CCC(OC(c2cccc(SCCN)c2)c2nc3cc(F)ccc3[nH]2)CC1` (stereo not drawn) (as salt: oxalate) [Example 428, 2-{3-[(5-fluoro-1H-benzimidazol-2-yl)(1-methylpiperidin-4-yloxy)methyl]phenylsulfanyl}ethylamine], the melting point came to 85 °C.

The compound `CN1CCC(OC(c2cccc(N3CCC(N)C3)c2)c2nc3ccccc3s2)CC1` (stereo not drawn) (as salt: oxalate) [Example 429, 1-{3-[benzothiazol-2-yl(1-methylpiperidin-4-yloxy)methyl]phenyl}pyrrolidin-3-ylamine] gave a melting point of 137 °C. Regarding `CN1CCC(OC(c2cccc(N3CCC(F)C3)c2)c2nc3ccccc3s2)CC1` (stereo not drawn) (as salt: oxalate) [Example 430, 2-[[3-(3-fluoropyrrolidin-1-yl)phenyl](1-methylpiperidin-4-yloxy)methyl]benzothiazole], the melting point was determined as 70 °C. For the compound `CN1CCC(OC(c2cccc(OCC=CCN)c2)c2nc3ccccc3s2)CC1` (stereo not drawn) (as salt: oxalate) [Example 431, 4-{3-[benzothiazol-2-yl(1-methylpiperidin-4-yloxy)methyl]phenoxy}but-2-enylamine], the melting point turned out to be 117 °C.

Consider `CN1CCC(OC(c2cccc(C#CCCCN)c2)c2nc3cc(F)ccc3[nH]2)CC1` (stereo not drawn) (as salt: oxalate) [Example 438, 5-{3-[(5-fluoro-1H-benzimidazol-2-yl)(1-methylpiperidin-4-yloxy)methyl]phenyl}pent-4-ynylamine], for which the melting point amounted to 150 °C. As for `CN1CCC(OC(c2nc3ccccc3[nH]2)c2cc(C#CCCCN)ccc2F)CC1` (stereo not drawn) (as salt: oxalate) [Example 442], the melting point amounted to 139 °C. Then `CN1CCC(OC(c2cccc(N3CCC(=O)C3)c2)c2nc3ccccc3s2)CC1` (stereo not drawn) (as salt: oxalate) [Example 443, 1-{3-[benzothiazol-2-yl(1-methylpiperidin-4-yloxy)methyl]phenyl}pyrrolidin-3-one], with 105 °C; and `CN1CCC(OC(c2cccc(Oc3cccnc3)c2)c2nc3ccccc3s2)CC1` (stereo not drawn) (as salt: oxalate) [Example 448, 2-{(1-methylpiperidin-4-yloxy)[3-(pyridin-3-yloxy)phenyl]methyl}benzothiazole], with 78 °C; and `CN1CCC(COC(c2cccc(Br)c2)c2nc3cc(F)ccc3[nH]2)C1` (stereo not drawn) (as salt: oxalate) [Example 449, 2-[(3-bromophenyl)(1-methylpyrrolidin-3-ylmethoxy)methyl]-5-fluoro-1H-benzimidazole], with 70 °C. In turn, `CN1CCC(OC(c2cccc(OC3CCC(N)C3)c2)c2nc3ccccc3s2)CC1` (stereo not drawn) (as salt: oxalate) [Example 453] had a melting point of 91 °C. On to `CN1CCC(OC(c2cccc(N3CCC(F)C3)c2)c2nc3ccccc3s2)CC1` (stereo not drawn) (as salt: oxalate) [Example 454], for which the melting point amounted to 103 °C.

The compound `CN1CCC(COC(c2cccc(C#CCCCN)c2)c2nc3cc(F)ccc3[nH]2)C1` (stereo not drawn) (as salt: oxalate) [Example 462] gave a melting point of 200 °C. Then `CN1CCC(OC(c2cccc(OC3CC4CNCC4C3)c2)c2nc3ccccc3s2)CC1` (stereo not drawn) (as salt: oxalate) [Example 466], with 70 °C; and `CN1CCC(OC(c2cccc(N3CC4CC(N)CC4C3)c2)c2nc3ccccc3s2)CC1` (stereo not drawn) (as salt: oxalate) [Example 471], with 126 °C. `CN1CCC(OC(c2cccc(I)c2)c2nc3ccccc3n2C)CC1` (stereo not drawn) (as salt: oxalate) [Example 472, 2-[(3-iodophenyl)(1-methylpiperidin-4-yloxy)methyl]-1-methyl-1H-benzimidazole]: the melting point was 76 °C.

In the case of `CN1CCC(OC(c2cccc(OCCCF)c2)c2nc3ccccc3[nH]2)CC1` (stereo not drawn) (as salt: oxalate) [Example 475], the melting point was 106 °C. `CN1CCC(OC(c2cccc(OCCF)c2)c2nc3ccccc3[nH]2)CC1` (stereo not drawn) (as salt: oxalate) [Example 476] yielded a melting point of 136 °C. The compound `CN1CCC(OC(c2cccc(OC3CCC(N)CC3)c2)c2nc3ccccc3s2)CC1` (stereo not drawn) (as salt: oxalate) [Example 477] displayed a melting point of 95 °C. Then `CN1CCC(OC(c2cccc(C#CCCCCN)c2)c2nc3ccccc3n2C)CC1` (stereo not drawn) (as salt: oxalate) [Example 480, 6-{3-[(1-methyl-1H-benzimidazol-2-yl)(1-methylpiperidin-4-yloxy)methyl]phenyl}hex-5-ynylamine], with 113 °C; and `CN1CCC(OC(c2cccc(N3CCCC3CN)c2)c2nc3ccccc3s2)CC1` (stereo not drawn) (as salt: oxalate) [Example 482], with 145 °C; and `CNC1CCN(c2cccc(C(OC3CCN(C)CC3)c3nc4ccccc4s3)c2)C1` (stereo not drawn) (as salt: oxalate) [Example 483], with 115 °C. Compound `CN1CCC(OC(c2cccc(N3CCC(N(C)C)C3)c2)c2nc3ccccc3s2)CC1` (stereo not drawn) (as salt: oxalate) [Example 484] gave a melting point of 106 °C.

`CN1CCC(OC(c2cccc(N3CC4CN(C)CC4C3)c2)c2nc3ccccc3s2)CC1` (stereo not drawn) (as salt: oxalate) [Example 485] yielded a melting point of 131 °C.
